Assay results: patent US20230181678A1, “NOVEL ANTIBACTERIAL PEPTIDE OR PEPTIDE ANALOG AND USE THEREOF” (CAMP THERAPEUTICS INC., priority 2020, published 2023)
* marks the point of attachment. Octanoyl = CCCCCCCC(=O)*

How the values were obtained:
E. coli ATCC 25922 = test: MIC assay, sensitizing effect of peptide on antibacterial agents; assay type: cell-based
Experimental: (§1) All MIC assay experiments were performed using the Clinical and Laboratory Standards Institute (CLSI) guidelines (Clinical & Laboratory Standards Institute: CLSI Guidelines, 2017). Bacterial cells cultured overnight were diluted to 0.05 McFarland standard using McFarland (KIT […] PLUS INSTRUMENT, Biomerieux) in Muller Hinton II Broth (cation-adjusted) (Difco). The cells were inoculated at 1.5×10^5 CFU per 200 μL solution of each well in a 96-well plate. The peptide and the antibiotic were prepared using 2-fold serially diluted concentrations. […] Incubation was performed at 37° C. for 18 hours, and then absorbance was measured at 600 nm using an EPOCH2 microplate reader (BioTek, Winooski, USA) to calculate a MIC value. The MIC value was defined as a concentration of the antibiotic or peptide at which bacterial growth was inhibited to a level of lower than 10% growth of the positive control. Fold reduction was calculated using the following expression.
Fold reduction=MIC of antibiotic alone/MIC of antibiotic in presence of sensitizing peptide
Using the same MIC assay method as in Example 1, sensitizing effects of the peptide L9P (CMP1107, 1 ug/ml), which is known as a conventional sensitive AMP, and CMP1401 (1 ug/ml) were compared on existing antibacterial agents against E. coli ATCC 25922 (FIG. 5A).
In addition, MIC screening was used to compare sensitizing effects of the competitive drug SPR741 and the peptide CMP1401 or CMP1501 on the existing antibacterial agents against E. coli ATCC 25922 (FIGS. 5B and 5C). SPR741, which is a previously known polymyxin B (PMB) analog, is a sensitive AMP, and is a drug that has been identified through preclinical experiments to be effective against Gram-negative bacteria in a case of being used together with existing Gram-positive antibiotics.
(§2) ATCC 25922, A.b. ATCC 17978, K.p. ATCC 700603, and P.a. ATCC 27853, or CRE (E.c. NDM-1, K.p. NDM-1, or K.p. KPC) (FIGS. 9 and 10).

K.p. KPC = test: MIC assay, sensitizing effect of peptide on rifampicin or colistin (CRE); assay type: cell-based, Klebsiella pneumoniae; settings: peptide 4 ug/ml
Experimental: as §1, §2

A. baumannii ATCC 17978 = test: Neutropenic mouse thigh infection model; assay type: in vivo
Experimental: To induce neutropenia in 6-week-old female ICR (CD-1) mice weighing 23 g to 27 g (Orient Bio, Seongnam, Korea), the mice were treated (subcutaneously injected) with 150 mg/kg and 100 mg/kg of cyclophosphamide (CP), respectively, 5 days and 2 days before thigh infection. A. baumannii ATCC 17978 was harvested, washed, and suspended in sterile saline. The mice were anesthetized and infected with 1×10^5 CFU A. baumannii ATCC 17978 in the right and left thighs. […] The sensitizing peptide CMP1401 was administered by intraperitoneal injection 1, 3, 5, and 7 hours after infection. The mice were euthanized 9 hours after bacterial injection. Both thighs were harvested and suspended in sterile saline. The thighs were homogenized and serially diluted in sterile saline. The homogenized thighs were applied to tryptic soy agar plates, incubated overnight at 37° C., and the number of colonies was counted.

OctA-KKALKLAKKPLKLLK-NH2 (Octanoyl-KKALKLAKKPLKLLK-NH2) [CMP1401]
Decreased MIC value of rifampicin at peptide concentration of 4 ug/ml (E. coli ATCC 25922; FIG. 9A, E.c. ATCC 25922, peptide 4 ug/ml): 2 ng/mL | Decreased MIC value of colisitin at peptide concentration of 4 ug/ml (E. coli ATCC 25922; FIG. 10A, E.c. ATCC 25922, peptide 4 ug/ml): 7.8 ng/mL | sensitizing effect on existing antibacterial agents compared with SPR741 (E. coli ATCC 25922; FIGS. 5B and 5C): almost the same or much better sensitizing effect | sensitizing effect compared with SPR741 at half its concentration (E. coli ATCC 25922; peptide concentration decreased by half as compared with SPR741, FIG. 5C): equal or superior effect | sensitizing effect on existing antibacterial agents compared with L9P (E. coli ATCC 25922; peptides 1 ug/ml, FIG. 5A): very good sensitizing effect | Decreased MIC value of rifampicin at peptide concentration of 4 ug/ml (K.p. KPC; FIG. 9G): 7.8 ng/mL | Decreased MIC value of colisitin at peptide concentration of 4 ug/ml (K.p. KPC; FIG. 10C): 250 ng/mL | decrease in number of colonies compared with rifampicin alone (A. baumannii ATCC 17978; CMP1401 100 mg/kg in the presence of 20 mg/kg of rifampicin): 14 fold | number of colonies, peptide administered alone (A. baumannii ATCC 17978; CMP1401 alone at 50 mg/kg): No changes were observed in the number of colonies | therapeutic efficacy of combination therapy with rifampicin (A. baumannii ATCC 17978; rifampicin and CMP1401): excellent therapeutic efficacy
